This is an account of results in ChEMBL document CHEMBL4706511, “Structure-based design, synthesis and bioactivity evaluation of macrocyclic inhibitors of mutant isocitrate dehydrogenase 2 (IDH2) displaying activity in acute myeloid leukemia cells” (Eur J Med Chem, 2020).

Broadly, the AUC(0-t) is exposure summed from dosing to a finite time, without extrapolation to infinity. A high value points to more exposure. The term AUC denotes the area under the concentration-time curve, a measure of exposure. A higher AUC goes with high exposure. Broadly, the Cmax is the maximum level reached in the sampled fluid or tissue. By bioavailability is commonly meant the share of a dose that reaches the circulation, judged against a reference dose that is usually intravenous. Higher therefore signals much systemic uptake. The term MRT last denotes a mean duration of stay, worked out from the concentration-time curve. What is called half-life is how long it takes for the measured level to halve. A higher half-life goes with slow decline. Usually IC50 stands for the point on the concentration scale where inhibition reaches its midpoint. The Tmax is the time from dosing to the highest level. The term AUC(0-inf) denotes total exposure, with the tail of the curve extrapolated.

Data set [1] in a line: AUC (0 to t) in Sprague-Dawley rat at 10 mg/kg, po measured up to 24 hrs by LC-MS/MS analysis. Type of data set: ADME, organism-based. Also noted: route oral, dose 10 mg/kg, time <=24. The note with it: in vivo.
Data set [2] can be described thus: AUC (0 to infinity) in Sprague-Dawley rat at 1 mg/kg, iv measured up to 24 hrs by LC-MS/MS analysis. Type of data set: ADME, organism-based. Also noted: route intravenous, dose 1 mg/kg, time <=24. The note with it: in vivo.
The nature of data set [3]: Cmax in Sprague-Dawley rat at 1 mg/kg, iv measured up to 24 hrs by LC-MS/MS analysis. Also noted: route intravenous, dose 1 mg/kg, time <=24. Type of data set: ADME, organism-based. As to conditions: in vivo.
Data set [4] can be described thus: Oral bioavailability Sprague-Dawley rat at 10 mg/kg measured up to 24 hrs by LC-MS/MS analysis. As to conditions: in vivo. Type of data set: ADME, organism-based.
Data set [5] in a line: MRT (0 to t) in Sprague-Dawley rat at 10 mg/kg, po measured upto 24 hrs by LC-MS/MS analysis. Type of data set: ADME, organism-based. The note with it: in vivo.
Data set [6] in a line: Half life in Sprague-Dawley rat at 10 mg/kg, po measured up to 24 hrs by LC-MS/MS analysis. The note with it: in vivo. It counts as ADME, organism-based.
Data set [7] can be described thus: Half life in Sprague-Dawley rat at 1 mg/kg, iv measured up to 24 hrs by LC-MS/MS analysis. Type of data set: ADME, organism-based. As to conditions: in vivo.
Data set [8] in a line: AUC (0 to t) in Sprague-Dawley rat at 1 mg/kg, iv measured up to 24 hrs by LC-MS/MS analysis. It counts as ADME, organism-based. Also noted: route intravenous, dose 1 mg/kg, time <=24. As to conditions: in vivo.
Data set [9] concerns the target Isocitrate dehydrogenase [NADP], mitochondrial (Homo sapiens, UniProt P48735, R172K). Nature of the data set: Inhibition of IDH2 R172K mutant (unknown origin) assessed as reduction in NADPH consumption using alpha-ketoglutarate and NADPH as substrate preincubated with enzyme for 15 mins followed by substrate addition by fluorescence based assay.
Data set [10] in a line: Tmax in Sprague-Dawley rat at 10 mg/kg, po measured up to 24 hrs by LC-MS/MS analysis. It counts as ADME, organism-based. As to conditions: in vivo.
Data set [11] is described as follows: Cmax in Sprague-Dawley rat at 10 mg/kg, po measured up to 24 hrs by LC-MS/MS analysis. Type of data set: ADME, organism-based. Also noted: route oral, dose 10 mg/kg, time <=24. As to conditions: in vivo.
The target in data set [12] is Isocitrate dehydrogenase [NADP], mitochondrial (Homo sapiens, UniProt P48735, R140Q). Nature of the data set: Inhibition of IDH2 R140Q mutant (unknown origin) assessed as reduction in NADPH consumption using alpha-ketoglutarate and NADPH as substrate preincubated with enzyme for 15 mins followed by substrate addition by fluorescence based assay.
A short description of data set [13]: MRT (0 to t) in Sprague-Dawley rat at 1 mg/kg, iv measured upto 24 hrs by LC-MS/MS analysis. It counts as ADME, organism-based. The note with it: in vivo.
Data set [14] is described as follows: AUC (0 to infinity) in Sprague-Dawley rat at 10 mg/kg, po measured up to 24 hrs by LC-MS/MS analysis. Type of data set: ADME, organism-based. Set-up: route oral, dose 10 mg/kg, time <=24. As to conditions: in vivo.
Data set [15] has as its system T1, Isocitrate dehydrogenase [NADP], mitochondrial (Homo sapiens), P48735 [R140Q].
T1 sequence (whole entry): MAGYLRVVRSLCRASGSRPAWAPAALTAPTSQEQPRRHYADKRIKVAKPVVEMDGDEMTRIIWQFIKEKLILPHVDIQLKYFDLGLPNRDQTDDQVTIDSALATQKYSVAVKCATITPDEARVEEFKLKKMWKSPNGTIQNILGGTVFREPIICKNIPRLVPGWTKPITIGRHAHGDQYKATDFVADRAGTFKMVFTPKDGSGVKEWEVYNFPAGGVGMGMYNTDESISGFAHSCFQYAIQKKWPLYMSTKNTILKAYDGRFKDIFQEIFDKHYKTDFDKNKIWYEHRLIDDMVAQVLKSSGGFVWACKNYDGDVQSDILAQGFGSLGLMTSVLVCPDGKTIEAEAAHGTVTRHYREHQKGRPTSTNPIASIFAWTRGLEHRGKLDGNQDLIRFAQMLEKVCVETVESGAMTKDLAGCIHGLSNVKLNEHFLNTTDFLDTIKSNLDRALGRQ
Briefly: Potency index, ratio of AG-221 IC50 to test compound IC50 for IDH2 R140Q mutant (unknown origin) assessed as reduction in NADPH consumption using alpha-ketoglutarate and NADPH as substrate preincubated with enzyme for 15 mins followed by substrate addition by fluorescence based assay.

The target of data set [16] is T2, Isocitrate dehydrogenase [NADP], mitochondrial (Homo sapiens, UniProt P48735).
T2 sequence (P48735 whole entry): T1 sequence (whole entry) with Q140R
Briefly: Inhibition of wild type IDH2 (unknown origin) assessed as reduction in NADPH production using sodium(D)-isocitrate and NADP as substrate preincubated with enzyme for 15 mins followed by substrate addition by fluorescence based assay.

A short description of data set [17]: Metabolic stability in human liver microsomes assessed as parent compound remaining at 100 ug/ml measured after 90 mins in presence of NADPH by LC-MS analysis. It counts as ADME, Microsome. As to conditions: at 100 µg/mL, read-out: Stabilty. (In general: Liver microsomes are a subcellular fraction often used to study metabolism.)
Data set [18] can be described thus: Metabolic stability in human liver microsomes assessed as parent compound remaining at 100 ug/ml measured after 45 mins in presence of NADPH by LC-MS analysis. As to conditions: at 100 µg/mL, read-out: Stabilty. Type of data set: ADME, Microsome.
Data set [19] in a line: Metabolic stability in human liver microsomes assessed as parent compound remaining at 100 ug/ml measured after 15 mins in presence of NADPH by LC-MS analysis. Type of data set: ADME, Microsome. As to conditions: at 100 µg/mL, read-out: Stabilty.

Where a chain is given by its changes, count along the chain named.

Sequence of Isocitrate dehydrogenase [NADP], mitochondrial (Homo sapiens, UniProt P48735, R172K) (P48735 40-452 R172K limits assumed): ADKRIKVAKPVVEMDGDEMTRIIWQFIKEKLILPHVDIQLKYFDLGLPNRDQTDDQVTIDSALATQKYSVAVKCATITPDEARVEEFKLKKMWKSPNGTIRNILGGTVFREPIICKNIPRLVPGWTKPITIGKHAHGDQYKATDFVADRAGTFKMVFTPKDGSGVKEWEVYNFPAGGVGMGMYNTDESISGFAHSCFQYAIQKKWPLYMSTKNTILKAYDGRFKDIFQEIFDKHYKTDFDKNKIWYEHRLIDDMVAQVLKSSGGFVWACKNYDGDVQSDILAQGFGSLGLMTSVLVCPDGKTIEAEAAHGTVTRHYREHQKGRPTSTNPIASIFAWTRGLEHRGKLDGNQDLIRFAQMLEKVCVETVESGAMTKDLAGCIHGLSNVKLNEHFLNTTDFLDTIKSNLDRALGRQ

For `CS(=O)(=O)O.FC(F)(F)c1cc2cc(c1)Nc1nc(nc(-c3cccc(C(F)(F)F)n3)n1)NCCCCCC2`, the AUC(0-t) at 24 h in data set [1] was determined as 2700 ng·h/mL; in data set [8], 1370 ng·h/mL. This compound also had an AUC in data set [2] of 1372.5 ng·h/mL. The results for the Cmax in data set [3] and in data set [11] were 1255.13 ng/mL and 237 ng/mL, respectively. The compound also came in with a bioavailability in data set [4] of 19.8%. Further, the MRT last at 24 h in data set [5] is 6.03 h. In addition, the half-life in [6] was 6.63 h. Also, the t1/2 in data set [7] was found to be 0.22 h. In addition, the figures for the 50% inhibitory concentration (IC50) in data set [9] and in data set [12] were 78.5 nM and 60.9 nM, respectively. In addition, the Tmax in [10] worked out at 1.33 h. Also, in [13], the “MRT(t)” value was 2.4 h. The same compound came in with an AUC(0-inf) in data set [14] of 2750 ng·h/mL.
For `FC(F)(F)c1cc2cc(c1)Nc1nc(nc(-c3cccc(C(F)(F)F)n3)n1)NCCCCCC2`, the Ratio IC50 in data set [15] is 6.
For the compound `FC(F)(F)c1cc2cc(c1)Nc1nc(nc(-c3cccc(C(F)(F)F)n3)n1)NCCC/C=C/C2`, the IC50 was 14100 nM in data set [16], 17.4 nM in data set [9] and 13.8 nM in data set [12]. In addition, the Ratio IC50 in data set [15] was 3. The remaining at 1.5 h, 100 ug/ml in data set [17] is 90%. Also, the remaining at 0.75 h, 100 ug/ml in data set [18] was 91%. Moreover, the remaining at 0.25 h, 100 ug/ml in [19] is greater than 99%.
